Experimental data taken from US7541446B2, “Tet repressor-based transcriptional regulatory proteins” (Tet Systems Holding GmbH & Co. KG, priority 1999, dated 2009).

Assays:
Format in all cases: cell-based
[1] = tested on: luciferase reporter construct pUHC13-3; assay: Doxycycline-dependent regulation of luciferase in HeLa cell lines stably producing the transactivator, reporter pUHC13-3 transiently transfected
Source text: In order to generate cell lines that maintain the plasmid episomally and thus produce the transactivator over extended periods of time, the transcription unit containing the rtTA-34R coding sequence controlled by the hCMV promoter was inserted into […] (Invitrogen, Carlsbad, USA) from which the RSV promoter had been excised. […] HeLa cells were transfected with the plasmid pCEP4-rtTA-34R, and clones isolated via G418 selection. Clones stably producing the transactivator were selected and tested for their ability to activate transcription from the transiently transfected luciferase reporter construct pUHC13-3 in the presence and absence of Dox.
Upon addition of 5 μg/ml of Dox, luciferase activity is induced up to 600 fold. In comparison to the HeLa cell line HR5 harboring chromosomal copies of the rtTA gene (Gossen et al., 1995), the background level is reduced. […] This leads to a several hundred fold induction of gene expression in the case of the rtTA-34R clones whereas in HR5 cells rtTA achieves only a 20 to 30 fold induction under these conditions.

[2] = tested on: GFP controlled by a tTA/rtTA responsive promoter; assay: rtTA dependent GFP fluorescence in S. cerevisiae; conditions: for basal activity (GFP fluorescence in the absence of inducer): excitation 490 nm, emission 512 nm
Source text: Thus, a plasmid, designated pCM190GFP+, was constructed which contains the following elements: • the coding sequence for GFP controlled by a tTA/rtTA responsive promoter; • a tTA/rtTA encoding sequence that is constitutively expressed; • the URA3 marker that allows selection in appropriate yeast strains; • the replication function of the 2μ episome of S. cerevisiae. Unique endonuclease cleavage sites allow for the removal of the TetR, the activation domain, or the entire tTA encoding sequences, typically replaced by pools of mutagenized alleles obtained as described previously (Leung et al., 1989).
The gene encoding GFP was cloned into the multiple cloning site of pCM190 (Gari et al., 1997) to serve as an indicator of rtTA activity, yielding plasmid pCM190GFP+. The TetR portion of tTA was amplified for mutagenesis with two oligonucleotide primers, 5′-[…] (SEQ ID NO:46), and 5′-[…] (SEQ ID NO:47), from the vector pCM190 as described (Leung et al., 1989). The PCR-fragments and pCM190-GFP+ were restricted with XbalI and BsiWI and purified. The PCR-fragments and the vector were then ligated and transformed into E. coli DH5α. Several thousand E. coli clones were co-cultured, and their plasmid pools were prepared and transformed into S. cerevisiae using the LiAc-method (Ito et al., 1983). […]
Accordingly, the resulting uracil-prototroph yeast clones were replica plated on minimal medium without uracil containing either Tc and/or Dox and scored after growth for two to three days at 30° C. using long wavelength UV-light to excite GFP fluorescence. […] The GFP fluorescence is shown on a logarithmic scale on the left axis. Fluorescence intensities are shown for each transactivator in the absence of inducer, in the presence of 10 μg/ml of Tc, and/or in the presence of 10 μg/ml of Dox. […]
S. cerevisiae strains containing rtTA-34R, rtTA-44R and a GFP^31 strain, as well as strains containing the original tTA and rtTA were grown overnight in minimal medium. […] The light emission of these cells was scored in a fluorimeter using an excitation wavelength of 490 nm and recording emission at 512 nm. […]

[3] = tested on: luciferase gene controlled by Ptet; assay: rtTA-dependent luciferase expression in transiently cotransfected HeLa cells (pUHC13-3); conditions: for induction of luciferase activity compared to rtTA: 5 μg/ml Tc or Dox; for reverse phenotype: transient expression, luciferase
Experimental: rtTA-34R and rtTA-44R were then recloned into pUHD15-1 (Gossen & Bujard, 1992), replacing the respective portions of tTA. HeLa cells were transiently cotransfected with plasmids pUHC13-3, encoding the luciferase gene controlled by Ptet (Gossen & Bujard, 1992), and the pUHD15-1 plasmids containing the genes of the respective transactivators. Luciferase activities were measured in absence (light column) and presence of 5 μg/ml of the effectors tetracycline (Tc, light grey) or doxycycline (Dox, dark grey). On the X axis, (−) corresponds to control HeLa cells into which no DNA was transferred. […] The increased regulation factor observed results from both a lower basal and a higher induced activity.
To obtain additional information about the role of the mutated residues, we separated the mutations at positions 19 and 56 from those at 139, 148 and 179. The resulting proteins are called rtTA-1956R and rtTA-148179R. The activation potential of rtTA-1956R and rtTA-148179R was assessed in transient expression experiments. Plasmids encoding the respective rtTA variants were cotransfected with the pUHC13-3 luciferase indicator plasmid into HeLa cells and the luciferase activity was determined.

[4] = tested on: Ptet-luciferase expression unit; assay: Dox dependent luciferase activity in stably transfected HeLa cells (X1/6-34R-FFFF, HR5-CL11); conditions: X1/6-34R-FFFF or HR5-CL11
Source text: The coding sequence of rTetR-34R was fused with a DNA encoding four minimal activation domains (FFFF)(Baron et al., 1997) by insertion into a proper pUHD vector to generate plasmid […]. HeLa cell line X1/6 was transfected with plasmid pUHrT5 1-1 carrying the rtTA-34R-FFFF gene under the control of PhCMv. The resulting HeLa cell line X1/6-34R-FFFF contains, in addition, the Ptet-luciferase expression unit in a “silent but activatable” locus.
Cell lines derived from various clones that contain pUHrT51-1 stably inserted into the genome where it is constitutively expressed were isolated via hygromycin-B selection and analyzed for Dox dependent luciferase activity. […] This is most likely due to the residual affinity between rtTA and tetO.

[5] = cell line HeLa 0.34R-16, episomal pCEP4-rtTA-34R
[6] = cell line HeLa 0.34R-33, episomal pCEP4-rtTA-34R
[7] = cell line HeLa 0.34R-36, episomal pCEP4-rtTA-34R
[8] = cell line HeLa HR5 (Tet on), chromosomal copies of the rtTA gene

Substance: rtTA-34R: rtTA sequence variant E19G, A56P, H139H (silent), D148E, H179R; aa = SEQ ID NO:2
- induced level of luciferase in comparison to HR5 ([1]; 5 μg/ml of Dox, rtTA-34R HeLa clones): significantly elevated
- induction of luciferase activity ([1]; 5 μg/ml of Dox, rtTA-34R HeLa clones, rtTA in HR5 cells): up to 600 fold
- factor of induction ([1]; cell line HeLa 0.34R-16): 600
- Luciferase activity (RLU/μg protein) with Dox [1, 5]: 540 ± 50 RLU/μg protein
- Luciferase activity (RLU/μg protein) without Dox [1, 5]: 323600 ± 69470 RLU/μg protein
- factor of induction ([1]; cell line HeLa 0.34R-33): 200
- Luciferase activity (RLU/μg protein) with Dox [1, 6]: 360 ± 140 RLU/μg protein
- Luciferase activity (RLU/μg protein) without Dox [1, 6]: 74620 ± 3230 RLU/μg protein
- factor of induction ([1]; cell line HeLa 0.34R-36): 200
- Luciferase activity (RLU/μg protein) with Dox [1, 7]: 430 ± 50 RLU/μg protein
- Luciferase activity (RLU/μg protein) without Dox [1, 7]: 87000 ± 7820 RLU/μg protein
- background level of luciferase in comparison to HR5 ([1]; without Dox, rtTA-34R HeLa clones): reduced
- basal activity (GFP fluorescence in the absence of inducer) [2]: clearly lower as compared to rtTA
- induction of luciferase activity compared to rtTA [3]: even higher induction of luciferase activity as compared to rtTA
- reverse phenotype [3]: improved reverse phenotype

Substance: rtTA-44R: rtTA sequence variant T26A, D95G; aa = SEQ ID NO:13
- basal activity (GFP fluorescence in the absence of inducer) [2]: clearly lower as compared to rtTA
- induction of luciferase activity compared to rtTA [3]: not improved over rtTA
- reverse phenotype [3]: shows a reverse phenotype

Substance: rtTA-1956R: rtTA sequence variant E19G, A56P; aa = SEQ ID NO:7
- reverse phenotype [3]: sufficient for the reverse phenotype

Substance: rtTA: original reverse tetracycline controlled transactivator (Gossen et al., 1995), parent, SEQ ID NO: 22/23 [reference compound]
- induction of luciferase activity by Dox [4]: about 700 fold
- luciferase activity in the absence of Dox [4]: significant background luciferase activity
- factor of induction ([1]; cell line HeLa HR5 (Tet on)): 27
- Luciferase activity (RLU/μg protein) with Dox [1, 8]: 920 ± 170 RLU/μg protein
- Luciferase activity (RLU/μg protein) without Dox [1, 8]: 26400 ± 4030 RLU/μg protein
- induction factor of expression ([2]; GFP fluorescence, Tc or Dox 10 μg/ml): 40 fold
